This is an account of results in US20060183714A1, “3-Alpha-glycosyl alpha, alpha-trehalose compound, process for producing the same, and use” (priority 2003, published 2006).

A short description of data set [1]: reducibility of the saccharide product. Type of data set: physicochemical. The conditions noted are these: product as obtained.
Data set [2] in a line: aminocarbonyl (Maillard) reaction of the saccharide product. Type of data set: physicochemical. The conditions noted are these: product as obtained.

Regarding `OC[C@H]1O[C@H](OC[C@H]2O[C@H](O[C@@H]3[C@@H](O)[C@@H](O[C@H]4O[C@H](CO)[C@@H](O)[C@H](O)[C@H]4O)O[C@H](CO)[C@H]3O)[C@H](O)[C@@H](O)[C@@H]2O)[C@H](O)[C@@H](O)[C@@H]1O` [Example 3, 3-α-isomaltosyl α,α-trehalose], in data set [1], the reducibility result was “substantially no reducibility”. In addition, the aminocarbonyl reaction entry in data set [2] is reported as “hardly causes amino carbonyl reaction”.
For `OC[C@H]1O[C@H](O[C@H]2O[C@H](CO)[C@@H](O)[C@H](O[C@H]3O[C@H](CO)[C@@H](O)[C@H](O)[C@H]3O)[C@H]2O)[C@H](O)[C@@H](O)[C@@H]1O` [Example 5, 3-α-glucosyl α,α-trehalose] the same measures were “substantially no reducibility” and “hardly causes aminocarbonyl reaction”.
